According to ChEMBL document CHEMBL5316343, “Design, Synthesis, and Biological Evaluation of a Potent Dual EZH2-BRD4 Inhibitor for the Treatment of Some Solid Tumors” (J Med Chem, 2023):
Activity calls are given as the source filed them. No cut-off for these calls is given here.

Columns and labels:
[1] = molecular target: T1, Histone-lysine N-methyltransferase EZH1 (Homo sapiens, UniProt Q92800); test: Inhibition of EZH1 (unknown origin) by radiometric assay
T1 sequence (Q92800 whole entry): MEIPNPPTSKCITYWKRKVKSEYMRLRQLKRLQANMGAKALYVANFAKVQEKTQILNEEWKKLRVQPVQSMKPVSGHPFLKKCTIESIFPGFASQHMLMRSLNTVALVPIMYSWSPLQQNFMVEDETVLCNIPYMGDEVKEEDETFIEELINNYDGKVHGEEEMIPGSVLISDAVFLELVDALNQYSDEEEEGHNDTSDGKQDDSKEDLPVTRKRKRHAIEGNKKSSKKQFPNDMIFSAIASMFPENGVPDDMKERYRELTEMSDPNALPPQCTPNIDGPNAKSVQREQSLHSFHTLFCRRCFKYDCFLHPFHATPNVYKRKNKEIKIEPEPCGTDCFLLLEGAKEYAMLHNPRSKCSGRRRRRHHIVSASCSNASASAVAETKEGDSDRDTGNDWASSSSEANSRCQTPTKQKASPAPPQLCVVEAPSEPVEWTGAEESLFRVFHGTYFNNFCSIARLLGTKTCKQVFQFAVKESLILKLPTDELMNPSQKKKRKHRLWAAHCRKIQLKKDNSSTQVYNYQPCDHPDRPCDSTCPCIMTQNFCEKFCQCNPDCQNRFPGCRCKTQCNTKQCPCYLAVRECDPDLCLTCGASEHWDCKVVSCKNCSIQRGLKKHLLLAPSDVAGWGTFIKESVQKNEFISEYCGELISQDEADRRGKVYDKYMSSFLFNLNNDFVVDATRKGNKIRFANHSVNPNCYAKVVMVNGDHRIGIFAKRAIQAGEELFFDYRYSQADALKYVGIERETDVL

[2] = molecular target: T2, Histone-lysine N-methyltransferase EZH2 (Homo sapiens, UniProt Q15910); test: Inhibition of EZH2 in human MDA-MB-231 cells assessed as decrease in H3K27me3 level at 5 uM by fluorescence based analysis; type: cell-based
[3] = molecular target: T2, Histone-lysine N-methyltransferase EZH2; test: Inhibition of EZH2 in human BX-PC-3 cells assessed as decrease in H3K27me3 level at 5 uM by fluorescence based analysis; type: cell-based; conditions: BXPC-3
[4] = molecular target: T2, Histone-lysine N-methyltransferase EZH2; test: Inhibition of EZH2 in human MDA-MB-231 cells assessed as increase in H3K27ac level at 5 uM by fluorescence based analysis; type: cell-based
[5] = molecular target: T2, Histone-lysine N-methyltransferase EZH2; test: Inhibition of EZH2 in human BXPC-3 cells assessed as increase in H3K27ac level at 5 uM by fluorescence based analysis; type: cell-based
[6] = test system: MDA-MB-231; test: Inhibition of colony formation in human MDA-MB-231 cells assessed as reduction in colony size at 0.1 to 2.5 uM incubated for 10 to 14 days in the presence of JQ1 by crystal violet staining based analysis; type: functional, cell-based; conditions: dose 0.1-2.5 µM, time 10-14 day
[7] = test system: MDA-MB-231; test: Inhibition of colony formation in human MDA-MB-231 cells assessed as reduction in number of cell colonies at 0.1 to 2.5 uM incubated for 10 to 14 days in the presence of JQ1 by crystal violet staining based analysis; type: functional; conditions: dose 0.1-2.5 µM, time 10-14 day
[8] = test system: BXPC-3; test: Inhibition of colony formation in human BXPC-3 cells assessed as reduction in colony size at 0.1 to 2.5 uM incubated for 10 to 14 days in the presence of JQ1 by crystal violet staining based analysis; type: functional, cell-based; conditions: dose 0.1-2.5 µM, time 10-14 day
[9] = test system: BXPC-3; test: Inhibition of colony formation in human BXPC-3 cells assessed as reduction in number of cell colony at 0.1 to 2.5 uM incubated for 10 to 14 days in the presence of JQ1 by crystal violet staining based analysis; type: functional; conditions: dose 0.1-2.5 µM, time 10-14 day
[10] = test system: MDA-MB-231; test: Inhibition of colony formation in human MDA-MB-231 cells incubated for 10 to 14 days in the presence of JQ1 by crystal violet staining based analysis; type: functional, cell-based; conditions: dose 0.1-2.5 µM, time 10-14 day
[11] = test system: BXPC-3; test: Inhibition of colony formation in human BXPC-3 cells incubated for 10 to 14 days in the presence of JQ1 by crystal violet staining based analysis; type: functional, cell-based; conditions: dose 0.1-2.5 µM, time 10-14 day
[12] = test system: MDA-MB-231; test: Inhibition of colony formation in human MDA-MB-231 cells assessed as reduction in colony size at 2.5 uM incubated for 10 to 14 days by crystal violet staining based analysis; type: functional, cell-based; conditions: time 10-14 day
[13] = test system: MDA-MB-231; test: Inhibition of colony formation in human MDA-MB-231 cells assessed as reduction in number of cell colonies at 2.5 uM incubated for 10 to 14 days by crystal violet staining based analysis; type: functional; conditions: time 10-14 day
[14] = test system: BXPC-3; test: Inhibition of colony formation in human BXPC-3 cells assessed as reduction in colony size at 2.5 uM incubated for 10 to 14 days by crystal violet staining based analysis; type: functional, cell-based; conditions: time 10-14 day
[15] = test system: BXPC-3; test: Inhibition of colony formation in human BXPC-3 cells assessed as reduction in number of cell colonies at 2.5 uM incubated for 10 to 14 days by crystal violet staining based analysis; type: functional; conditions: time 10-14 day
[16] = test system: MDA-MB-231; test: Induction of apoptosis in human MDA-MB-231 cells assessed as viable cells at 5 uM incubated for 48 hrs by Annexin V-FITC/PI staining based flow cytometric analysis (reference value: 97.63%); type: functional; conditions: read-out: Activity
[17] = test system: MDA-MB-231; test: Induction of apoptosis in human MDA-MB-231 cells assessed as early apoptotic cells at 5 uM incubated for 48 hrs by Annexin V-FITC/PI staining based flow cytometric analysis (reference value: 0.69%); type: functional
[18] = test system: MDA-MB-231; test: Induction of apoptosis in human MDA-MB-231 cells assessed as late apoptotic cells at 5 uM incubated for 48 hrs by Annexin V-FITC/PI staining based flow cytometric analysis (reference value: 1.06%); type: functional
[19] = test system: MDA-MB-231; test: Induction of apoptosis in human MDA-MB-231 cells assessed as necrotic cells at 5 uM incubated for 48 hrs by Annexin V-FITC/PI staining based flow cytometric analysis (reference value: 0.63%); type: functional
[20] = test system: BXPC-3; test: Induction of apoptosis in human BXPC-3 cells assessed as viable cells at 5 uM incubated for 48 hrs by Annexin V-FITC/PI staining based flow cytometric analysis (reference value: 90.70%); type: functional; conditions: read-out: Activity
[21] = test system: BXPC-3; test: Induction of apoptosis in human BXPC-3 cells assessed as early apoptotic cells at 5 uM incubated for 48 hrs by Annexin V-FITC/PI staining based flow cytometric analysis (reference value: 3.28 %); type: functional
[22] = test system: BXPC-3; test: Induction of apoptosis in human BXPC-3 cells assessed as late apoptotic cells at 5 uM incubated for 48 hrs by Annexin V-FITC/PI staining based flow cytometric analysis (reference value: 4.38 %); type: functional
[23] = test system: BXPC-3; test: Induction of apoptosis in human BXPC-3 cells assessed as necrotic cells at 5 uM incubated for 48 hrs by Annexin V-FITC/PI staining based flow cytometric analysis (reference value: 1.65 %); type: functional
[24] = test system: MDA-MB-231; test: Inhibition of cell proliferation in human MDA-MB-231 cells assessed as decrease in c-Myc protein level at 5 uM incubated for 48 hrs by IHC analysis; type: functional, cell-based
[25] = test system: MDA-MB-231; test: Inhibition of cell proliferation in human MDA-MB-231 cells assessed as decrease in c-Myc mRNA level at 5 uM incubated for 48 hrs by qRT-PCR analysis; type: functional, cell-based
[26] = test system: BXPC-3; test: Inhibition of cell proliferation in human BXPC-3 cells assessed as decrease in c-Myc protein level at 5 uM incubated for 48 hrs by IHC analysis; type: functional, cell-based
[27] = test system: BXPC-3; test: Inhibition of cell proliferation in human BXPC-3 cells assessed as decrease in c-Myc mRNA level at 5 uM incubated for 48 hrs by qRT-PCR analysis; type: functional, cell-based
[28] = test system: BXPC-3; test: Antitumor activity against human BXPC-3 cells xenografted in Balb/c nude mouse assessed as reduction in tumor growth at 60 mg/kg, ip administered daily for 30 days; type: functional, organism-based; conditions: time 30.0 day
[29] = Toxicity in Balb/c nude mouse xenografted with human BXPC-3 cells assessed as effect on body weight at 60 mg/kg, ip administered daily for 30 days; type: organism-based; conditions: in vivo, 720 h, time 30 day
[30] = test system: Mus musculus; test: In vivo inhibition of EZH2 in Balb/c nude mouse xenografted with human BXPC-3 cells assessed as reduction in H3K27me3 level in tumor at 60 mg/kg, ip administered daily for 30 days by IHC analysis; type: functional, organism-based; conditions: time 30.0 day
[31] = test system: Mus musculus; test: In vivo inhibition of EZH2 in Balb/c nude mouse xenografted with human BXPC-3 cells assessed as increase in H3K27ac level in tumor at 60 mg/kg, ip administered daily for 30 days by IHC analysis; type: functional, organism-based; conditions: time 30.0 day

T2 sequence (Q15910 whole entry, looked up): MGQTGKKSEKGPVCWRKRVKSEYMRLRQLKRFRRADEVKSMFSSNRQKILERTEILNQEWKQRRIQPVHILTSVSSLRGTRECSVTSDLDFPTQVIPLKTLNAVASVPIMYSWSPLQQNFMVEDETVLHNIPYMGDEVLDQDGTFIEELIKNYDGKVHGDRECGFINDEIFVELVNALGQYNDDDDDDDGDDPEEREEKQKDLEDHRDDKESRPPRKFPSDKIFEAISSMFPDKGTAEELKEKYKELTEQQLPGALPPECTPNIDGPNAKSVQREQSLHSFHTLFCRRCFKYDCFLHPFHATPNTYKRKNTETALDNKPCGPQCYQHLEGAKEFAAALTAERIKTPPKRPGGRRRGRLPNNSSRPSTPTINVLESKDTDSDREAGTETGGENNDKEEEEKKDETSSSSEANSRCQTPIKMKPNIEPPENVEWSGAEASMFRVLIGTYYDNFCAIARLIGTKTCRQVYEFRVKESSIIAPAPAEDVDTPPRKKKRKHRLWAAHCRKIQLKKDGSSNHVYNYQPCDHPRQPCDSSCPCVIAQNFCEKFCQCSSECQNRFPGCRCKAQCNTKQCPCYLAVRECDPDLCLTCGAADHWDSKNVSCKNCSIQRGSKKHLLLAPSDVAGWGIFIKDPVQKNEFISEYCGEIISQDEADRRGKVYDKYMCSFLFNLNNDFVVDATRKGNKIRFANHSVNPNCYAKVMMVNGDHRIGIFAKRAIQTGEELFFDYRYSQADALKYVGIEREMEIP

With CCC(C)n1cc(C)c2c(C(=O)NCc3c(C)cc(C)[nH]c3=O)cc(-c3ccc(N4CCNCC4)nc3)cc21 (stereo unspecified) the IC50 [1] was 124 nM, the inhibition [2] was “Active” and the inhibition [3] was “Active”. The inhibition [4] was “Active”, the inhibition [5] was “Active” and the inhibition [6] was “Active”. For the same compound, the inhibition [7] was “Active”, the inhibition [8] was “Active” and the inhibition [9] was “Active”. The inhibition [10] was “Dose-Dependent Effect”, the inhibition [11] was “Dose-Dependent Effect” and the inhibition [12] was “inactive”. The inhibition [13] was “inactive”, the inhibition [14] was “inactive” and the inhibition [15] was “inactive”. The viability at 5 µM [16] was 97%, the Activity [17] was 1.83% and the Activity [18] was 0.92%. For the same compound, the Activity [19] was 0.3%, the viability at 5 µM [20] was 91.9% and the Activity [21] was 3.18%. The Activity [22] was 3.86%, the Activity [23] was 0.98% and the inhibition [24] was “inactive”. The inhibition [25] was “inactive”, the inhibition [26] was “inactive” and the inhibition [27] was “inactive”. For the same compound, the Activity [28] was “inactive”, the Activity [29] was “Non-Toxic” and the inhibition [30] was “Active”. For the same compound, the inhibition [31] was “Active”.
